# According to US20200055839A1 (priority 2017, published 2020):
# System: NL-RLuc virus
# Experiment: Inhibition of HIV replication (NL-RLuc virus, luciferase readout in MT-2 cells)
# Type: cell-based
# Details: Human immunodeficiency virus 1, MT2, 120 h, MT-2 cells infected with NL-RLuc virus, 5 days of incubation, 10% FBS, at least 2 experiments
# Outline: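 EC50 derived via median effect equation from at least 2 experiments, using luciferase expression as virus-growth readout. Replication-competent NL-RLuc reporter virus (nef partly replaced by Renilla luciferase) infected MT-2 cells with serial compound dilutions; 5-day incubation in RPMI 1640 plus 10% FBS.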
row,Compound,EC50 [nM]
1,"CCOc1ccc(-c2cnc(C)c([C@H](OC(C)(C)C)C(=O)O)c2N2CCC(C)(C)CC2)c(F)c1F [Example 175, (2S)-2-(tert-Butoxy)-2-[4-(4,4-dimethylpiperidin-1-yl)-5-(4-ethoxy-2,3-difluorophenyl)-2-methylpyridin-3-yl]acetic acid]",6
2,"Cc1ncc(-c2ccc(OCCc3ccc(F)cc3)cc2F)c(N2CCC(C)(C)CC2)c1[C@H](OC(C)(C)C)C(=O)O [Example 123, (S)-2-(tert-Butoxy)-2-(4-(4,4-dimethylpiperidin-1-yl)-5-(2-fluoro-4-(4-fluorophenethoxy)phenyl)-2-methylpyridin-3-yl)acetic acid]",2
3,"Cc1nc(NC2CCOCC2)c(-c2ccc(OCCc3ccc(F)cc3)cc2)c(N2CCC(C)(C)CC2)c1[C@H](OC(C)(C)C)C(=O)O [Example 24, (S)-2-(tert-Butoxy)-2-(4-(4,4-dimethylpiperidin-1-yl)-5-(4-(4-fluorophenethoxy)phenyl)-2-methyl-6-((tetrahydro-2H-pyran-4-yl)amino)pyridin-3-yl)acetic acid]",2
4,"Cc1ncc(-c2ccc(OCCc3cc(F)c(F)cc3F)cn2)c(N2CCC(C)(C)CC2)c1[C@H](OC(C)(C)C)C(=O)O [Example 353, (2S)-2-(tert-butoxy)-2-[4′-(4,4-dimethylpiperidin-1-yl)-6′-methyl-5-[2-(2,4,5-trifluorophenyl)ethoxy]-[2,3′-bipyridine]-5′-yl]acetic acid]",0.8
5,"Cc1ncc(-c2cnc(OCCc3ccc(Cl)cc3)c(F)c2)c(N2CCC(C)(C)CC2)c1[C@H](OC(C)(C)C)C(=O)O [Example 395, (2S)-2-(tert-butoxy)-2-{6′-[2-(4-chlorophenyl)ethoxy]-4-(4,4-dimethylpiperidin-1-yl)-5′-fluoro-6-methyl-[3,3′-bipyridine]-5-yl}acetic acid]",2
6,"Cc1nc(Nc2ccncc2)c(-c2ccc(OCCc3ccc(F)cc3)cc2)c(N2CCC(C)(C)CC2)c1[C@H](OC(C)(C)C)C(=O)O [Example 77, (S)-2-(tert-Butoxy)-2-(4-(4,4-dimethylpiperidin-1-yl)-5-(4-(4-fluorophenethoxy)phenyl)-2-methyl-6-(pyridin-4-ylamino)pyridin-3-yl)acetic acid]",0.6
7,"CCCCOc1ccc(-c2cnc(C)c([C@H](OC(C)(C)C)C(=O)O)c2N2CCC(C)(C)CC2)cn1 [Example 426, (S)-2-tert-Butoxy-2-(6′-butoxy-4-(4,4-dimethylpiperidin-1-yl)-6-methyl-3, 3′-bipyridin-5-yl)acetic acid]",0.3
8,"Cc1ncc(-c2cccc(OCCc3ccc(F)cc3)n2)c(N2CCC(C)(C)CC2)c1[C@H](OC(C)(C)C)C(=O)O [Example 280, (S)-2-(tert-Butoxy)-2-(4′-(4,4-dimethylpiperidin-1-yl)-6-(4-fluorophenethoxy)-6′-methyl-[2, 3′-bipyridin]-5′-yl)acetic acid]",20
9,"COc1ccc(CCOc2ccc(-c3cnc(C)c([C@H](OC(C)(C)C)C(=O)O)c3N3CCC(C)(C)CC3)cc2)cc1 [Example 367, (2S)-2-(tert-butoxy)-2-[4-(4,4-dimethylpiperidin-1-yl)-5-{4-[2-(4-methoxyphenyl)ethoxy]phenyl}-2-methylpyridin-3-yl]acetic acid]",1
10,"Cc1nc(Nc2cccnc2)c(-c2ccc(OCCc3ccc(F)cc3)cc2)c(N2CCC(C)(C)CC2)c1[C@H](OC(C)(C)C)C(=O)O [Example 64, (S)-2-(tert-Butoxy)-2-(4-(4,4-dimethylpiperidin-1-yl)-5-(4-(4-fluorophenethoxy)phenyl)-2-methyl-6-(pyridin-3-ylamino)pyridin-3-yl)acetic acid]",5
11,"Cc1nc(Nc2ccnc(C(=O)O)c2)c(-c2ccc(OCCc3ccc(F)cc3)cc2)c(N2CCC(C)(C)CC2)c1[C@H](OC(C)(C)C)C(=O)O [Example 102, (S)-4-((5-(tert-Butoxy(carboxy)methyl)-4-(4,4-dimethylpiperidin-1-yl)-3-(4-(4-fluorophenethoxy)phenyl)-6-methylpyridin-2-yl)amino)picolinic acid]",50
12,"COc1c(F)ccc(-c2cnc(C)c([C@H](OC(C)(C)C)C(=O)O)c2N2CCC(C)(C)CC2)c1F [Example 171, (2S)-2-(tert-Butoxy)-2-[5-(2,4-difluoro-3-methoxyphenyl)-4-(4,4-dimethylpiperidin-1-yl)-2-methylpyridin-3-yl]acetic acid]",5
13,"Cc1nc(-c2cccnc2)c(-c2ccc(OCCc3ccc(F)cc3)cc2)c(N2CCC(C)(C)CC2)c1[C@H](OC(C)(C)C)C(=O)O [Example 41, (S)-2-(tert-Butoxy)-2-(4-(4,4-dimethylpiperidin-1-yl)-3-(4-(4-fluorophenethoxy)phenyl)-6-methyl-[2, 3′-bipyridin]-5-yl)acetic acid]",4
14,"Cc1ncc(-c2cnc(OCC(C)C)c(F)c2)c(N2CCC(C)(C)CC2)c1[C@H](OC(C)(C)C)C(=O)O [Example 381, (2S)-2-(tert-butoxy)-2-[4-(4,4-dimethylpiperidin-1-yl)-5′-fluoro-6-methyl-6′-(2-methylpropoxy)-[3,3′-bipyridine]-5-yl]acetic acid]",3
15,"Cc1ncc(-c2ccc(OCCc3cccc(Cl)c3F)cn2)c(N2CCC(C)(C)CC2)c1[C@H](OC(C)(C)C)C(=O)O [Example 354, (2S)-2-(tert-butoxy)-2-{5-[2-(3-chloro-2-fluorophenyl)ethoxy]-4′-(4,4-dimethylpiperidin-1-yl)-6′-methyl-[2,3′-bipyridine]-5′-yl}acetic acid]",0.5
16,"Cc1ncc(-c2ccc(OCCc3c(Cl)cccc3Cl)cn2)c(N2CCC(C)(C)CC2)c1[C@H](OC(C)(C)C)C(=O)O [Example 297, (2S)-2-(tert-butoxy)-2-{5-[2-(2,6-dichlorophenyl)ethoxy]-4′-(4,4-dimethylpiperidin-1-yl)-6′-methyl-[2,3′-bipyridine]-5′-yl}acetic acid]",1
17,"Cc1nc(-c2cnc(C)c([C@H](OC(C)(C)C)C(=O)O)c2N2CCC(C)(C)CC2)ncc1OCCc1ccc(F)cc1 [Example 245, (S)-2-(tert-Butoxy)-2-(4-(4,4-dimethylpiperidin-1-yl)-5-(5-(4-fluorophenethoxy)-4-methylpyrimidin-2-yl)-2-methylpyridin-3-yl)acetic acid]",2
18,"Cc1nc(NCCN(C)C)c(-c2ccc(OCCc3ccc(F)cc3)cc2)c(N2CCC(C)(C)CC2)c1[C@H](OC(C)(C)C)C(=O)O [Example 28, (S)-2-(tert-Butoxy)-2-(6-((2-(dimethylamino)ethyl)amino)-4-(4,4-dimethylpiperidin-1-yl)-5-(4-(4-fluorophenethoxy)phenyl)-2-methylpyridin-3-yl)acetic acid]",0.7
19,"Cc1ncc(-c2ccc(CNc3ncnc4c3oc3ccccc34)c(F)c2)c(N2CCC(C)(C)CC2)c1[C@H](OC(C)(C)C)C(=O)O [Example 218, (S)-2-(5-(4-((Benzofuro[3,2-d]pyrimidin-4-ylamino)methyl)-3-fluorophenyl)-4-(4,4-dimethylpiperidin-1-yl)-2-methylpyridin-3-yl)-2-(tert-butoxy)acetic acid]",0.2

# Same assay, conditions: MT-2 cells infected with NL-RLuc virus, 5 days of incubation, 10% FBS, at least 2 experiments
row,Compound,EC50 [nM]
1,"Cc1nc(N)c(-c2ccc(OCCc3ccc(F)cc3)c(F)c2F)c(N2CCC(C)(C)CC2)c1[C@H](OC(C)(C)C)C(=O)O (single isomer, unassigned) [Example 71]",2
